Measured values: ChEMBL document CHEMBL2417372, “Design, synthesis, and mechanism of action of 2-(3-hydroxy-5-methoxyphenyl)-6-pyrrolidinylquinolin-4-one as a potent anticancer lead” (Bioorg Med Chem Lett, 2013)

Tests used:
NCI-H522 = assay: Cytotoxicity against human NCI-H522 cells after 48 hrs; format: functional; settings: NCI-H522, 48 h, read-out: pLC50 (the source's name) (converted)
[1] = Cytotoxicity against human Hs578T cells after 48 hrs; format: functional; settings: Hs-578T

Compound `COc1cc(O)cc(-c2cc(=O)c3cc(N4CCCC4)ccc3[nH]2)c1` has a CC50 (NCI-H522) of 3.89 µM, a GI50 [1] of 0.038 µM and a CC50 ([1]; read-out: pLC50 (the source's name) (converted)) greater than 100 µM. The TGI ([1]; read-out: pTGI (converted)) was 70.8 µM.
